Results on 11 compounds are retold here after US20240043442A1, “SELECTIVE ESTROGEN RECEPTOR DEGRADERS AND USES THEREOF” (InventisBio LLC, priority 2016, published 2024).

Read-outs that look alike come from different tables or passages of the source.

What is called IC50 is the point on the concentration scale where inhibition reaches its midpoint.

Data set [1] is described as follows: Human hepatocyte clearance study. The class given is in vitro ADME. As to conditions: pooled cryopreserved human hepatocytes (suspension); for hepatocyte CLint at 1 µM / half-life at 1 µM: human; for hepatocyte CLint at 1 µM: read-out: Human In vitro Clint (μL/min/10^6 cells); for half-life at 1 µM: read-out: Human In vitro T1/2; for CLint scaled at 1 µM: human hepatocytes, scaling factor 2544.3, read-out: Human Scale-up Clint. The method, then: (§1) The in vitro hepatocyte clearance of compound described here was studied using pooled human hepatocytes purchased from BioreclamationlVT (Westbury, NY, Cat #X008001, Lot #TQJ). Assay was conducted according to manufacture's instruction. Briefly, mM tock solutions of test compound and positive control (Verapamil) were prepared in 100% DMSO. Thawing media (50 mL) used in the study consists of: 31 mL Williams E medium (GIBCO Cat #12551-032); 15 mL isotonic percoll (GE Healthcare Cat #17-0891-09); 500 uL 100×GlutaMax (GIBCO Cat #35050); 750 uL HEPES (GIBCO Cat #15630-080); 2.5 mL FBS (Corning Cat #35-076-CVR); 50 uL human insulin (GIBCO Cat #12585-014) and 5 uL dexamethasone (NICPBP). Incubation media is made of Williams E medium supplemented with 1×GlutaMax. Thawing medium and supplement incubation medium (serum-free) were placed in a 37° C. water bath for at least 15 minutes prior to use. Compound stock solutions were diluted to 100 μM by combining 198 μt of 50% acetonitrile/50% water and 2 μL of 10 mM stock solution. Verapamil was use as positive control in the assay. Vials of cryopreserved hepatocytes were removed from storage and thawed in a 37° C. water bath with gentle shaking. Contents of the vial were poured into the 50 mL thawing medium conical tube. Vials were centrifuged at 100 g for 10 minutes at room temperature. Thawing medium was aspirated and hepatocytes were re-suspended with serum-free incubation medium to yield ˜1.5×10^6 cells/mL. Hepatocyte viability and density were counted using a Trypan Blue exclusion, and then cells were diluted with serum-free incubation medium to a working cell density of 0.5×10^6 viable cells/mL. Then, a portion of the hepatocytes at 0.5×10^6 viable cells/mL was boiled for 5 min prior to adding to the plate as negative control to eliminate the enzymatic activity so that little or no substrate turnover should be observed. The boiled hepatocytes were used to prepare negative samples. Aliquots of 198 μL hepatocytes were dispensed into each well of a 96-well non-coated plate. The plate was placed in the incubator on an orbital shaker at 500 rpm for approximately 10 minutes. Aliquots of 2 μL of the 100 μM test compound or positive control were added into respective wells of the non-coated 96-well plate to start the reaction. This assay was performed in duplicate. The plate was incubated in the incubator on an orbital shaker at 500 rpm for the designed time points. Twenty-five microliter of contents were transferred and mixed with 6 volumes (150 μL) of cold acetonitrile with IS (200 nM imipramine, 200 nM labetalol and 200 nM diclofenac) to terminate the reaction at time points of 0, 15, 30, 60, 90 and 120 minutes. Samples were centrifuged at 3,220 g for 25 minutes and aliquots of 150 μL of the supernatants was used for LC-MS/MS analysis. For data analysis, all calculations were carried out using Microsoft Excel. Peak areas were determined from extracted ion chromatograms. The in vitro half-life (t1/2) of parent compound was determined by regression analysis of the percent parent disappearance vs. time curve. The in vitro half-life (in vitro t1/2) was determined from the slope value: in vitro t1/2=0.693/k. […] Scaling factors for in vivo intrinsic clearance prediction using human hepatocytes are listed as: liver weight (g liver/kg body weight): 25.7; hepatocyte concentration (10^6 cells/g liver): 99; scaling factor: 2544.3.

Data set [2] relates to pooled human hepatocytes. As to the kind of experiment: Human hepatocyte clearance study. Format: in vitro ADME. The following applies: for Human Hepatocyte Remaining Percentage @ 120 min (%): human hepatocytes 0.5x10^6 viable cells/mL; for Human In vitro Clint (μL/min/10^6 cells) / Human In vitro T1/2 / Human Scale-up Clint: human hepatocytes; for Human Scale-up Clint: scaling factor 2544.3. The method, then: as §1

Data set [3] has as its target T1, ER (Homo sapiens (Human), UniProt P03372). The data set can be described thus: MCF-7 ER degradation assay (high content imaging). Format: cell-based. The following applies: MCF-7 cells, 1 nM compound, DMSO control as baseline; for MCF7 ER Degradation at 4 hr (%): 4 hours treatment; for MCF7 ER Degradation at 24 hr (%): 24 hours treatment.
Procedure: The level of ER degradation by SERD described in this patent was analyzed by cell based high content imaging method. […] Then, 1 μL of compound solution (in DMSO) was added to the cells to make a final concentration of 1 nM per each well of treated cells. DMSO at the same final concentration (%) per each well was used to serve as negative control on each plate. After 4 hours or 24 hours of treatment at 37° C. with 5% CO2, the cells were fixed and permeabilized. Media from each well was aspirated and cells were gently washed with 1×PBS for 5 minutes and the wash procedure was repeated 3 times. Cells was then fixed with 4% formaldehyde freshly made in 1×PBS at room temperature for 20 minutes, followed by gentle washing with 1×PBS, 3 times for 5 minute each. The assay plate was incubated with 200 μl of 1×PBS containing 0.2% Triton-X100 for 5 minutes at room temperature, cells were then washed again with 1×PBS 3 times for 5 minutes each. After this, cells were incubated with the blocking buffer (1×PBS with 5% BSA) at room temperature for 1 hour. For immunostaining, blocking buffer was removed and primary anti-ER antibody (ER1D5, Santa Cruz) diluted in blocking buffer (1:400) was added to each well and cells were incubated overnight at 4° C. The next day, cells were washed with 1×PBS for 3 times with 5 minute each. […] Cells were washed with 1×PBS for 3 times with 5 minute each time. Cells were incubated with DAPI (Beyotime; 1 μg/ml) for 10 minutes and washed with 1×PBS for 3 times with 5 minute each time. […] SERD induced ER degradation in the MCF-7 cells were measured using DMSO negative control as the baseline.
Data set [4] in a line: Mouse PK study (iv 3 mpk, po 30 mpk). Format: in vivo, male CD1 mice. As to conditions: male, CD1, whole blood; for clearance: 3 mg/kg, IV 3 mpk, read-out: Mouse IV 3 mpk CL (converted); for AUC(0-t) / half-life: 30 mg/kg, PO 30 mpk; for AUC(0-t): read-out: Mouse PO 30 mpk AUC last; for half-life: read-out: Mouse PO 30 mpk T½ (converted). The procedure:
Mouse PK study (iv 3 mpk, and po 30 mpk) was conducted using male CD1 mice (25-33 g) obtained from SLAC Laboratory Animal Co., LTD of Shanghai). Compound is prepared with the following formulation: 5% DMSO, 5% Solutol HS 15 and 9% HPBCD in water. For intravenous (iv) dose at 3 mpk and oral (po) dose at 30 mpk, the compound is formulated at the concentration […] and […], respectively. Compound formulation is freshly made prior to dosing in the morning. Oral dosing is via the use of oral gavage at 10 mL/kg, while iv dosing is via tail vein at 5 mL/kg. Three mice are used for each dosing route per compound per dose. Serial blood sample (30 uL whole blood at each time point) is collected into the K2EDTA tubes via facial vein at the following time points: 5 min (for iv route only), 30 min, 1, 2, 4, 6, 8, 12 and 24 hours. For each blood sample collected, immediately transfer 20 uL blood sample and mix well with 60 uL water in a 96-well plate (whole blood:water=1:3 v/v). Diluted blood samples are stored at −80C freezer until analysis. For analysis, an aliquot of 20 μL sample was added with 200 μL IS (Glipizide, 100 ng/mL) in ACN. The mixture was vortexed for 2 min and centrifuged at 5800 rpm for 10 min. An aliquot of 2 μL supernatant was injected for LC-MS/MS analysis. Compound at 2.0-3000 ng/mL in CD1 mouse diluted blood is used for calibration curve. Pharmacokinetic data are obtained and described in the table below: […]

In data set [5] the test system is breast cancer cell line MCF-7. The data set can be described thus: MCF-7 cell growth study (celltiter-glo luminescent viability assay).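 Further: viability read by luminescence after compound exposure, relative to DMSO vehicle-treated wells on the same plate.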 The class given is cell-based, human. The following applies: MCF-7 cells, 6 days incubation, read-out: IC50 (nM), cell growth inhibition. On the technique in general: In ATP-based viability assays light output follows the ATP content of the culture.
Procedure: Compound activity was analyzed using celltiter-glo luminescent viability assay (Promega #G7572) in breast cancer cell line MCF-7. Cells grown in log phase are trypsinized and seeded into a 96-well cell culture plate at a density of 2×10^3 per well and incubated overnight at 37° C. with 5% CO2 in humidified culture chamber. The next day, compounds were prepared in 100% DMSO and were serially diluted and added into cells in the following final concentrations: 316, 100, 31.6, 10, 3.16, 1, 0.32, 0.1, 0.03, 0.01, 0.003 and 0.001 nM. As a control, same volume and concentration of DMSO vehicle control solution was added to the control wells in each plate. The cells were incubated with compounds at 37° C. culture chamber for 6 days. Promega's celltiter-glo kit was used to analyze the cell viability, according to manufacture's instruction. Briefly, fifty microliter of celltiter-glo reagent was added to each well, plate (covered with aluminum foil) was gently vibrated for 10 min to induce cell lysis at room temperature. Luminescence was measured using a SPECTRAmax i3 reader.

The test system of data set [6] is xMCF-7 xenograft tumor. As to the kind of experiment: Human breast cancer xMCF-7 xenograft efficacy study in mouse. Format: in vivo. The following applies: for tumor growth inhibition and tumor regression (FIG. 2): 2 mg/kg orally, once daily for 28 days, start at tumor ~250 mm^3. The procedure:
To investigate the in vivo efficacy of SERD compounds described in this application, female nude mice were inoculated with human ER+ breast cancer cells xMCF-7. xMCF-7 cells are derived from MCF-7 (ATCC) tumor grown in the nude mice. Briefly, female balb/c mice (age 6-7 wk) were first inoculated subcutaneously on the back with estrogen pellet (0.5 mg, 60-day release from Innovative Research of America, Cat #SE-121). Two days later, each mouse was inoculated with 5 million xMCF-7 cells, prepared as 0.2 ml cell suspension in 1:1 mix of Eagle's MEM to cell culture media and Matrigel (Corning Cat #354234) for each injection. After tumor size reached ˜235 mm^3, mice with xMCF-7 xenograft tumor are randomized to 10 mice per group and started receiving drug treatment.
In another xMCF-7 study, treatment initiated when tumor reached ˜250 mm^3. Each drug was given at 2 mg/kg orally, once daily for 28 days.
Background: A xenograft is tissue or cells of one species grown in another, often human tumour cells in immunodeficient mice.

Data set [7] addresses T1, ER. The following applies: intramuscular injection monthly; cited from earlier work.

T1 sequence (P03372 whole entry): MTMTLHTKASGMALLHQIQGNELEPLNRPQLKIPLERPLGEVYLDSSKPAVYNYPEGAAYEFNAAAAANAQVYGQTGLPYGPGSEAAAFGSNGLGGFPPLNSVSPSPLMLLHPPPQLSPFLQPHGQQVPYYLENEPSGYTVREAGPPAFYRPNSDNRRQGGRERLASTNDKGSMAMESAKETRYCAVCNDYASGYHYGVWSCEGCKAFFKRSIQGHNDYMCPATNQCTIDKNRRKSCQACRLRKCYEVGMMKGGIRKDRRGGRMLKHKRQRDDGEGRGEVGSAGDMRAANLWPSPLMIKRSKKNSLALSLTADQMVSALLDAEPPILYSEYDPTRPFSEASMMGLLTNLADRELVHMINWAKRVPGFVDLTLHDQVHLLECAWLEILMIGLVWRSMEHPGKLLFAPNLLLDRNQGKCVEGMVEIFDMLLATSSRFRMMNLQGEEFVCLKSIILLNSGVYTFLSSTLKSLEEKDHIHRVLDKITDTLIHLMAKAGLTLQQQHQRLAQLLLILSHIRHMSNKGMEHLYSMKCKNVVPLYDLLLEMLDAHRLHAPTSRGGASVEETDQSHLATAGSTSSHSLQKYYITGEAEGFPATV

In the case of `C[C@@H]1Cc2c([nH]c3ccccc23)[C@@H](c2c(F)cc(/C=C/C(=O)O)cc2F)N1CC(C)(C)F` [AZD9496, reference compound], in data set [1], the hepatocyte CLint at 1 µM was 9 µL/min/1e6 cells, the half-life at 1 µM came to 2.55 h and the CLint scaled at 1 µM turned out to be 23 mL/min/kg. In addition, the “Human Hepatocyte Remaining Percentage @ 120 min (%)” value in data set [2] is 58%. Moreover, in data set [3], the “MCF7 ER Degradation at 4 hr (%)” value stood at 17% and the “MCF7 ER Degradation at 24 hr (%)” value was determined as 23%. Also, in data set [4], the clearance was 19 mL/min/kg, the AUC(0-t) worked out at 85 µM·h and the half-life was 3.5 h.
As to `C[C@@H]1Cc2c([nH]c3ccccc23)[C@@H](c2c(F)cc(OCCN3CC(CF)C3)cc2F)N1CC(C)(F)F` [Compound 1], in data set [2], the “Human In vitro Clint (μL/min/10^6 cells)” value came out at 1.6 μL/min/10^6 cells, the “Human In vitro T1/2” value was 14.2 h, the “Human Hepatocyte Remaining Percentage @ 120 min (%)” value worked out at 88% and the “Human Scale-up Clint” value stood at 4.1 mL/min/kg. The IC50 in data set [5] was found to be 0.3 nM.
Consider `C[C@@H]1Cc2c([nH]c3ccccc23)[C@@H](c2c(F)cc(OCCN3CC(CF)C3)cc2Cl)N1CC(C)(C)F` [Compound 11], for which, in data set [1], the hepatocyte CLint at 1 µM came out at 2 µL/min/1e6 cells, the half-life at 1 µM was determined as 11.1 h and the CLint scaled at 1 µM stood at 5.3 mL/min/kg. In addition, the “Human Hepatocyte Remaining Percentage @ 120 min (%)” value in data set [2] was 83%. The IC50 in data set [5] (Homo sapiens, MCF7, 144 h) is 0.4 nM.
Take `C[C@@H]1Cc2c([nH]c3ccccc23)[C@@H](c2c(F)cc(OCCN3CC(CF)C3)cc2Cl)N1CC(C)(F)F` [Compound 12]: in data set [5] (Homo sapiens, MCF7, 144 h), the IC50 came to 0.26 nM. In data set [6], the “tumor growth inhibition and tumor regression (FIG. 2)” value is recorded as “more efficacious than AZD9496”.
On to `C[C@@H]1Cc2c([nH]c3ccccc23)[C@@H](c2c(F)cc(/C=C/C(=O)O)cc2Cl)N1CC(C)(C)F` [Compound 20], for which, in data set [2], the “Human In vitro Clint (μL/min/10^6 cells)” value is reported as 5.6 μL/min/10^6 cells, the “Human In vitro T1/2” value is 4.1 h, the “Human Hepatocyte Remaining Percentage @ 120 min (%)” value is recorded as 70% and the “Human Scale-up Clint” value was found to be 14 mL/min/kg. In addition, the IC50 in data set [5] turned out to be 0.3 nM. Further, in data set [3], the “MCF7 ER Degradation at 4 hr (%)” value came to 25% and the “MCF7 ER Degradation at 24 hr (%)” value came out at 21%.
Regarding `C[C@@H]1Cc2c([nH]c3ccccc23)[C@@H](c2c(Cl)cc(/C=C/C(=O)O)cc2Cl)N1CC(C)(F)F` [Compound 25], the IC50 in data set [5] (Homo sapiens, MCF7, 144 h) came out at 0.8 nM. In addition, the “tumor growth inhibition and tumor regression (FIG. 2)” value in data set [6] is “more efficacious than AZD9496”. In addition, the “tumor growth inhibition (tumor volume change, FIG. 1)” value in data set [6] (oral 5 mg/kg or 30 mg/kg once a day for 28 days, fulvestrant 250 mg/kg subcutaneously, start at tumor ~235 mm^3) was “more efficacious in vivo than fulvestrant, GDC-0810 and AZD9496”. Besides, in data set [4], the clearance is 1.33 mL/min/kg, the AUC(0-t) came to 658 µM·h and the half-life is 62 h.
Turning to `C[C@@H]1Cc2c([nH]c3ccccc23)[C@@H](c2c(F)cc(/C=C/C(=O)O)cc2F)N1CC(C)(F)F` [Compound 29], in data set [1], the hepatocyte CLint at 1 µM came to 2.4 µL/min/1e6 cells, the half-life at 1 µM was 9.52 h and the CLint scaled at 1 µM stood at 6.2 mL/min/kg. Moreover, in data set [2], the “Human Hepatocyte Remaining Percentage @ 120 min (%)” value is listed as 83%. Besides, the IC50 in data set [5] (Homo sapiens, MCF7, 144 h) was 0.9 nM.
Consider `CC1Cc2c([nH]c3cc(F)ccc23)C(c2c(F)cc(/C=C/C(=O)O)cc2F)N1CC(C)(C)F` (stereo not drawn) [Compound 34A], for which, in data set [3], the “MCF7 ER Degradation at 4 hr (%)” value amounted to 21% and the “MCF7 ER Degradation at 24 hr (%)” value was found to be 20%.
In the same order, the values of `CC1Cc2c([nH]c3ccc(F)cc23)C(c2c(F)cc(/C=C/C(=O)O)cc2F)N1CC(C)(C)F` (stereo not drawn) [Compound 46A] are 25% and 20%.
Regarding `C[C@]12CC[C@@H]3c4ccc(O)cc4C[C@@H](CCCCCCCCC[S+]([O-])CCCC(F)(F)C(F)(F)F)[C@H]3[C@@H]1CC[C@@H]2O` (stereo partly drawn) [Fulvestrant, reference compound], in data set [1], the hepatocyte CLint at 1 µM was 33 µL/min/1e6 cells, the half-life at 1 µM is 0.7 h and the CLint scaled at 1 µM is 86 mL/min/kg. Besides, the “Human Hepatocyte Remaining Percentage @ 120 min (%)” value in data set [2] is listed as 12%. Also, in data set [3], the “MCF7 ER Degradation at 4 hr (%)” value came to 29% and the “MCF7 ER Degradation at 24 hr (%)” value was 15%. Besides, in data set [7], the “ER degradation in clinical samples” value was roughly 50%.
Consider `CC/C(=C(/c1ccc(/C=C/C(=O)O)cc1)c1ccc2[nH]ncc2c1)c1ccc(F)cc1Cl` [GDC-0810, reference compound], for which, in data set [1], the hepatocyte CLint at 1 µM turned out to be 24.6 µL/min/1e6 cells, the half-life at 1 µM is 0.933 h and the CLint scaled at 1 µM is 63 mL/min/kg. For the same compound, in data set [2], the “Human Hepatocyte Remaining Percentage @ 120 min (%)” value came to 24%. For the same compound, in data set [4], the clearance was 15.3 mL/min/kg, the AUC(0-t) came out at 80 µM·h and the half-life is 2.9 h.
